From patent US20220126077A1, “Treatment for Dry Eyes” (priority 2020, published 2022)

Test system: lacrimal glands
Experiment: Experimentation with balm ingredients applied to the skin adjacent the eyes: tear production
Assay type: in vivo
Settings: vapor released over time
Source text: The formulation particularly preferred for the balm includes caffeine, in a medically useful amount, which, when applied to the skin adjacent the eyes, promotes blood circulation thereto. Additionally included is menthol in a medically useful amount, which is included to release a vapor over a period of time subsequent to application to the skin.
By adjacent to the eye is meant the skin area on the face which is below the lower eye lid, and between the end of the nose of the user and the outside end of the eye of the user which is closest to the ear on the same side as the eye being treated.
The plurality of active ingredients have been found, in experimentation when employed together, to have a beneficial synergistic effect which is well beyond the effect of the individual ingredients when employed in a balm by themselves. Currently, an active ingredient portion of the total volume of the balm mixture, includes a combination of active ingredients blended and combined to an active ingredient portion of the total balm mixture. This active ingredient portion of the total mixture ranges from 20 to 60 percent of the total volume of the balm mixture. […]

CC1CCC(C(C)C)C(O)C1 (stereo not shown) [menthol, Menthol]
production of tears by the lacrimal glands: stimulate the lacrimal glands to produce tears
